These results are taken from publication PMC6271220, “Synthesis, Molecular Docking and Biological Evaluation of Glycyrrhizin Analogs as Anticancer Agents Targeting EGFR” (Molecules, 2014).

The test system of data set [1] is HepG2 (hepatocellular carcinoma). Kind of data set: CCK-8 anti-proliferative assay, HepG2. In kind it is cell-based. As to conditions: Homo sapiens, CCK-8 assay, average of three independent experiments in triplicate. The protocol: (§1) CCK8 is much more convenient and helpful than MTT for analyzing cell proliferation, because it can be reduced to soluble formazan by dehydrogenase in mitochondria and has little toxicity to cells. Cell proliferation was determined using CCK8 dye (BeyotimeInst Biotech, Shanghai, China) according to manufacturer’s instructions. Briefly, 1–5 × 10^3 cells per well were seeded in a 96-well plate, grown at 37 °C for 12 h, Subsequently, cells were treated with compounds at increasing concentrations in the presence of 10% FBS for 24 or 48 h. After 10 µL CCK8 dye was added to each well, cells were incubated at 37 °C for 1–2 h and Plates were read in a Victor-V multilabel counter (Perkin-Elmer, Waltham, MA, USA) using the default europium detection protocol. Percent inhibition or IC50 values of compounds were calculated by comparison with DMSO-treated control wells.

Data set [2] deals with HeLa (cervix of uterus adenocarcinoma). Kind of data set: CCK-8 anti-proliferative assay, HeLa. In kind it is cell-based. As to conditions: Homo sapiens, CCK-8 assay, average of three independent experiments in triplicate. How it is done: as §1
In a further data set the test system is A549 (lung carcinoma). Kind of data set: CCK-8 anti-proliferative assay, A549. It is filed as cell-based. As to conditions: Homo sapiens, CCK-8 assay, average of three independent experiments in triplicate. How it is done: as §1
A further data set concerns the target T1, EGFR (Homo sapiens, UniProt P00533).
T1 construct: EGFR cytoplasmic domain (EGFR-CD, amino acids 645–1186); (His)6 (N); made in house; host or cells: Sf-9 insect cells (baculovirus)
Kind of data set: EGFR kinase autophosphorylation assay (DELFIA/time-resolved fluorometry). In kind it is biochemical. As to conditions: in vitro EGFR enzyme inhibition. The protocol: A sequence that encodes (His)6 was located at the 5′ upstream to the EGFR sequences. Sf-9 cells were infected for 3 days for protein expression. Sf-9 cell pellets were solubilized at 0 °C in a buffer at pH 7.4 containing 50 mM HEPES, 10 mM NaCl, 1% Triton, 10 µM ammonium molybdate, 100 µM sodium vanadate, 10 µg/mL aprotinin, 10 µg/mL leupeptin, 10 µg/mL pepstatin, and 16 µg/mL benzamidine HCl for 20 min followed by 20 min centrifugation. Crude extract supernatant was passed through an equilibrated Ni-NTA superflow packed column and washed with 10 mM and then 100 mM imidazole to remove nonspecifically bound material. Histidine tagged proteins were eluted with 250 and 500 mM imidazole and dialyzed against 50 mM NaCl, 20 mM HEPES, 10% glycerol, and 1 µg/mL each of aprotinin, leupeptin and pepstatin for 2 h. The entire purification procedure was performed at 4 °C or on ice.
EGFR kinase assays were set up to assess the level of autophosphorylation based on DELFIA/Time-Resolved Fluorometry. All compounds were dissolved in 100% DMSO and diluted to the appropriate concentrations with 25 mM HEPES at pH 7.4. In each well, 10 µL compound was incubated with 10 µL (5 ng for EGFR) recombinant enzyme (1:80 dilution in 100 mM HEPES) for 10 min at room temperature. Then, 10 µL of 5 mM buffer (containing 20 mM HEPES, 2 mM MnCl2, 100 µM Na3VO4 and 1 mM DTT) and 20 µL of 0.1 mM ATP–50 mM MgCl2 were added for 1 h. Positive and negative controls were included in each plate by incubation of enzyme with or without ATP–MgCl2. At the end of incubation, liquid was aspirated, and plates were washed three times with wash buffer. A 75 µL (400 ng) sample of europium labeled anti-phosphotyrosine antibody was added to each well for another 1 h of incubation. After washing, enhancement solution was added and the signal was detected by Victor (Wallac Inc., Gaithersburg, MD, USA) with excitation at 340 nm and emission at 615 nm. The percentage of auto-phosphorylation inhibition by the compounds was calculated using the following formula: 100% − [(negative control)/(positive control − negative control)]. The IC50 was obtained from curves of percentage inhibition with eight concentrations of compound.

Data set [3] has as its system S180 (sarcoma tumer cell line). Kind of data set: In vivo tumor xenograft model, S180 tumor-bearing mice. Also on record: species or system Kunming mice. As to conditions: 60 mg/kg/day oral gavage, ten days; for Inhibition rate: from average tumor weights vs control. How it is done:
(§2) Kunming mice (SPF, male or female, 20 ± 2 g) were purchased from the experimental animal center of China Pharmaceutical University. Animals were housed in a temperature (22 ± 2 °C) and relatively humidity (50%)-controlled room on a 12 h light/dark cycle, given free access to food and water, and acclimatized for at least one week prior to use. All the animal experiments were performed in accordance with the Regulations of the Experimental Animal Administration issued by the State Committee of Science and Technology of China.
(§3) Cell lines used for evaluation of the in vivo antitumor activity in this study included three tumor cell lines, namely S180 (sarcoma tumer cell line), HepG2 (liver carcinoma cell line), EAC (Ehrlich ascites carcinoma cell line). All of cell lines were purchased by the Shanghai Institutes for Biological Sciences, Chinese Academy of Sciences, and the cells were cultured in RPMI-1640 medium, which was supplemented with 10% heat-inactivated fetal bovine serum, 100 U/mL penicillin and 100 U/mL streptomycin and cultured in an atmosphere of 5% CO2 at 37 °C. Cells were collected for the experiments in the logarithmic growth phase.
(§4) To establish the tumor-bearing mouse model, the cell lines were harvested and inoculated subcutaneously into the right armpit region of the mice. On the 7th day, the tumor ascrites were obtained and washed with sterile PBS. Under sterile condition, the tumor ascrites were diluted with sterile nomal saline to 1 × 10^10 /L cell suspension. Tumor ascites were maintained in vivo in mice by transplantation of 0.2 mL of ascites (2 × 10^6 cells) from the infected mice to the non-infected mice.
(§5) Each Kunming mouse (male or female, weight 20 ± 2 g) were inoculated with seven-day-old ascrite (0.2 mL, 2 × 10^6 cells) subcutaneously into the right front armpit. 24 h after implantation of tumor cells, the mice were randomly divided into five test groups with 10 mice per group. Each mouse was weighed immediately after inoculation. The mice were treated by oral gavage with test samples (60 mg/kg/day) or normal saline (NS, 10 mL/kg) for ten days once daily. On day 11, the mice were sacrificed via cervical dislocation, and the mouse and tumor were excised and weighed for evaluating the tumor growth inhibition. The tumor inhibitory rate was calculated by the following formula: [drawing 5] (1) where Wcontrol and Wtreated were the average tumor weights of the control and treated mice, respectively. […] The effect of glycyrrhizin analogs on percentage increases in life span was calculated on the basis of mortality of the experimental mice: […]

Data set [4] concerns HepG2 (liver carcinoma cell line). Put plainly: In vivo tumor xenograft model, HepG2 tumor-bearing mice. As to conditions: 60 mg/kg/day oral gavage, ten days; for Inhibition rate: from average tumor weights vs control. Also on record: species or system Kunming mice. The protocol:
as §2, §3, §4, §5

The subject of data set [5] is EAC (Ehrlich ascites carcinoma cell line). Kind of data set: Survival of EAC tumor-bearing mice. In kind it is in vivo, Kunming mice. As to conditions: for Survival time: control 16.40 ± 2.07 d; for Survival rate: percentage increase in life span vs control. How it is done:
as §2, §3, §4, §5

T1 sequence (P00533 669-1210): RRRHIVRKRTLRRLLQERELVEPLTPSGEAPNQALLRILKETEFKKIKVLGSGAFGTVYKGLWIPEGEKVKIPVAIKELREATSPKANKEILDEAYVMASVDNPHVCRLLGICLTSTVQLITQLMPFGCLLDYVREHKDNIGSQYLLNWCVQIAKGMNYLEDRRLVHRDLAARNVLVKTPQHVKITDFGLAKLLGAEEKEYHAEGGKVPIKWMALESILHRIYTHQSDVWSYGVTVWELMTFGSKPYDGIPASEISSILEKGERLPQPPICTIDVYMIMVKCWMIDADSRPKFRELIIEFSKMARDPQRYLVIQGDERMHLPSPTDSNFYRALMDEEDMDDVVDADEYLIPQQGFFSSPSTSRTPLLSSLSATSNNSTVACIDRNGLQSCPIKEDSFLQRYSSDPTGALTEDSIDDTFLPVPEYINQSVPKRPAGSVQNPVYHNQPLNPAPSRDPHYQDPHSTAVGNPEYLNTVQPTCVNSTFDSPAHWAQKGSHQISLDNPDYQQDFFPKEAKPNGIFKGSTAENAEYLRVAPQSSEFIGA

Take `C#Cc1cccc(Nc2ncnc3cc(OCCOC)c(OCCOC)cc23)c1` [Erlotinib, reference compound]: the results for the IC50 (in data set [1]; in data set [2]; in the data set on A549 (lung carcinoma)) were 0.12 µM, 0.2 µM and 0.13 µM, respectively.

`CC1(C)[C@@H](O[C@@H]2O[C@H](C(=O)O)[C@@H](O)[C@H](O)[C@H]2O)CC[C@]2(C)[C@H]3C(=O)C=C4[C@@H]5C[C@@](C)(C(=O)O)CC[C@]5(C)CC[C@@]4(C)[C@]3(C)CC[C@@H]12` [18β-GAMG, glycyrrhetic acid 3-O-mono-β-D-glucuronide]: the IC50 stood at 33.6 µM in data set [1], 8.39 µM in data set [2], 21.6 µM in the data set on A549 (lung carcinoma) and 0.069 µM on EGFR. The figures for the “Body weight End” value in data set [3] and in data set [4] were 25.02 ± 2.58 g and 27.8 ± 1.57 g, respectively. In addition, the Tumor weight is recorded as 1.25 ± 0.19 g in data set [3] and 1.20 ± 0.35 g in data set [4]. For the same compound, the Inhibition rate worked out at 34.6% in data set [3] and 38.4% in data set [4]. The compound further registered a Survival time in data set [5] of 21.05 ± 4.65 days. The Survival rate in data set [5] was determined as 28.4%.

Turning to `CC1(C)[C@@H](O[C@H]2O[C@H](C(=O)O)[C@@H](O)[C@H](O)[C@H]2O[C@@H]2O[C@H](C(=O)O)[C@@H](O)[C@H](O)[C@H]2O)CC[C@]2(C)[C@H]3C(=O)C=C4[C@@H]5C[C@@](C)(C(=O)O)CC[C@]5(C)CC[C@@]4(C)[C@]3(C)CC[C@@H]12` [18β-GA, Glycyrrhizin], the IC50 turned out to be 63.6 µM in data set [1], 18.9 µM in data set [2], 51.9 µM with A549 (lung carcinoma) and 0.092 µM at EGFR. Besides, the results for the “Body weight End” value in data set [3] and in data set [4] were 24.48 ± 2.37 g and 26.94 ± 2.05 g, respectively. For the same compound, the Tumor weight in data set [3] was found to be 1.33 ± 0.67 g; in data set [4] it was 1.26 ± 0.65 g. For the same compound, the Inhibition rate in data set [3] was 30.4%; in data set [4] it was 35.4%. In addition, the Survival time in data set [5] is 19.40 ± 3.77 days. The compound further gave a Survival rate in data set [5] of 18.3%.

For the compound `CC1(C(=O)O)CCC2(C)CCC3(C)C(=CC(=O)C4C5(C)CCC(OC6OC(C(=O)O)C(O)C(O)C6OC6OC(C(=O)O)C(O)C(O)C6O)C(C)(C)C5CCC43C)C2C1` (stereo not drawn) [18α-GA, 18α-Glycyrrhizin], the IC50 in data set [1] stood at 54.2 µM; in data set [2] it was 15.1 µM; in the data set on A549 (lung carcinoma) it was 41.6 µM; against EGFR, 0.081 µM. For the same compound, the “Body weight End” value is 25.20 ± 1.11 g in data set [3] and 26.08 ± 1.26 g in data set [4]. The Tumor weight worked out at 1.29 ± 0.47 g in data set [3] and 1.22 ± 0.46 g in data set [4]. For the same compound, the values for the Inhibition rate in data set [3] and in data set [4] were 32.5% and 37.4%, respectively. This compound also showed a Survival time in data set [5] of 19.75 ± 3.08 days. Besides, the Survival rate in data set [5] came to 20.4%.

As to `CC1(C)[C@@H](O[C@@H]2O[C@H](C(=O)O)[C@@H](O)[C@H](O)[C@H]2O)CC[C@]2(C)[C@H]3C(=O)C=C4[C@H]5C[C@@](C)(C(=O)O)CC[C@]5(C)CC[C@@]4(C)[C@]3(C)CC[C@@H]12` [18α-GAMG], the IC50 was 6.67 µM in data set [1], 7.43 µM in data set [2], 15.8 µM in the data set on A549 (lung carcinoma) and 0.028 µM on EGFR. The results for the “Body weight End” value in data set [3] and in data set [4] were 25.25 ± 1.80 g and 27.02 ± 2.10 g, respectively. For the same compound, the Tumor weight amounted to 1.15 ± 0.50 g in data set [3] and 0.98 ± 0.43 g in data set [4]. For the same compound, the Inhibition rate in data set [3] was determined as 39.8%; in data set [4], 49.7%. The same compound gave a Survival time in data set [5] of 23.85 ± 5.41 days. In addition, the Survival rate in data set [5] is recorded as 45.4%.
